Assay results taken from patent publication US11524966B1 (Valo Early Discovery, Inc., priority 2017, dated 2022).

Each compound was assayed against T1, USP28 (USP28-5(1-1077)-TEV-6*His; LifeSensors) (Homo sapiens, UniProt Q96RU2) (assay: Ubiquitin-Rhodamine 110 Assay for USP28 Activity, Example A-1(b)). Conditions: Ub-Rh110 assay, Example A-1(b).
T1 construct: construct USP28 (USP28-5(1-1077)-TEV-6*His; LifeSensors); TEV cleavage site (C); 6xHis (C); purchased LifeSensors
T1 sequence (Q96RU2 1-1077): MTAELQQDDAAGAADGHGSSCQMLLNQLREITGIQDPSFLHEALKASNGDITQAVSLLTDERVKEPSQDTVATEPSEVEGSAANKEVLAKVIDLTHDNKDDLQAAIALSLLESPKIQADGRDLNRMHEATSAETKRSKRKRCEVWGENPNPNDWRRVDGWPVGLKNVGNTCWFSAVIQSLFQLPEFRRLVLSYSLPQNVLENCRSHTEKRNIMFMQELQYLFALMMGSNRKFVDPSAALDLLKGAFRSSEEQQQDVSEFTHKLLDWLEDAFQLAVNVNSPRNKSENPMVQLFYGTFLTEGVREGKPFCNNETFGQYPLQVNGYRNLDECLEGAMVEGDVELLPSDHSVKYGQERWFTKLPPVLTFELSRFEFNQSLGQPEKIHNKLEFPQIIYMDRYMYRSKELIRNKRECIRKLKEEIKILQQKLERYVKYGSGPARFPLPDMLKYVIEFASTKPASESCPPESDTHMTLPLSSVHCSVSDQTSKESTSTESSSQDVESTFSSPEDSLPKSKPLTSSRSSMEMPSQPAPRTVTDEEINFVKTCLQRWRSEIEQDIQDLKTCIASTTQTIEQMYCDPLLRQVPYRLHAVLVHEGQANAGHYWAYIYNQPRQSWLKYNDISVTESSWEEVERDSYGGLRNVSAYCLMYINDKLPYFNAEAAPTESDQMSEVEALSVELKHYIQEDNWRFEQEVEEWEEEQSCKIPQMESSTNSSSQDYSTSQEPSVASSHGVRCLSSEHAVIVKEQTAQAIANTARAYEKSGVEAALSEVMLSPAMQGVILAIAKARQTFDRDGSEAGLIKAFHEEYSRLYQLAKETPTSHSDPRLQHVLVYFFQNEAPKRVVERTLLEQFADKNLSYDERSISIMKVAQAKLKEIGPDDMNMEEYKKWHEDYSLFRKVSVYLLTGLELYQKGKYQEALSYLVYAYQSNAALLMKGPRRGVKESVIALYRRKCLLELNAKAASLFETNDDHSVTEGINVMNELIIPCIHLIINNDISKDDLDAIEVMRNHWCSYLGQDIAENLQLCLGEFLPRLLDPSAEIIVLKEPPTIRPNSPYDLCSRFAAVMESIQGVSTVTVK
Format: biochemical
Method in brief: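 Single-point screening used 10 μM compound with 90 min room-temperature incubation; follow-up dose-responses (25 μM top, 3-fold) used 75 pM USP28 1-1077 construct, 30 min compound preincubation, 25 nM Ub-Rh110, 20 min reaction, citric acid quench. Rh110 fluorescence normalised to no-enzyme and DMSO controls; IC50 from 4-parameter logistic fit.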

**Q.** `Cc1cnc2c(N)c(C(=O)N[C@@H]3CCc4cc(N5CCNCC5)c(C)cc4C3)sc2n1` (single isomer, unassigned) [Example 2-35] was tested. Which “USP28 A-1(b) IC50 range” value did it give?
**A.** + (>2 μM)

**Q.** Which “USP28 A-1(b) IC50 range” value does the source give for `Cc1cnc2c(N)c(C(=O)N[C@H]3CCc4c(ccc(N5CCNCC5)c4C)C3)sc2n1` (single isomer, unassigned) [Example 2-36] here?
**A.** + (>2 μM)

**Q.** How did the “USP28 A-1(b) IC50 range” value turn out when `Cc1cnc2c(N)c(C(=O)N[C@@H]3CCc4c(ccc(N5CCNCC5)c4C)C3)sc2n1` (single isomer, unassigned) [Example 2-37] was run?
**A.** +++ (0.05-0.2 μM)

**Q.** With `Cc1ccc2c(N)c(C(=O)N[C@H]3COc4cc(N5CCC[C@@](N)(C(F)(F)F)C5)ccc4C3)sc2n1` (single isomer, unassigned) [Example 3-3] as the compound, how does the “USP28 A-1(b) IC50 range” value read?
**A.** ++++ (0.001-0.05 μM)

**Q.** With `Cc1ccc2c(N)c(C(=O)N[C@H]3COc4cc(N5CCC[C@](N)(C(F)(F)F)C5)ccc4C3)sc2n1` (single isomer, unassigned) [Example 3-4] as the compound, how does the “USP28 A-1(b) IC50 range” value read?
**A.** +++ (0.05-0.2 μM)

**Q.** `Cc1nc2sc(C(=O)N[C@H]3COc4cc(N5CC6CCC(C5)N6)ccc4C3)c(N)c2s1` [Example 1-23, N-((3R)-7-(3,8-diazabicyclo[3.2.1]octan-3-yl)chroman-3-yl)-6-amino-2-methylthieno[2,3-d]thiazole-5-carboxamide] was tested. Which “USP28 A-1(b) IC50 range” value did it give?
**A.** ++ (0.2-2 μM)

**Q.** Which “USP28 A-1(b) IC50 range” value does the source give for `Cc1nc2sc(C(=O)N[C@@H]3COc4cc(N5CC6CCC(C5)N6)ccc4C3)c(N)c2s1` [Example 1-24, N-((3S)-7-(3,8-diazabicyclo[3.2.1]octan-3-yl)chroman-3-yl)-6-amino-2-methylthieno[2,3-d]thiazole-5-carboxamide] here?
**A.** + (>2 μM)

**Q.** For `Cc1nc2sc(C(=O)N[C@H]3COc4cc(N5CCNCC5)ccc4C3)c(N)c2s1` [Example 1-25, (R)-6-amino-2-methyl-N-(7-(piperazin-1-yl)chroman-3-yl)thieno[2,3-d]thiazole-5-carboxamide], which “USP28 A-1(b) IC50 range” value is on record?
**A.** ++ (0.2-2 μM)

**Q.** How did the “USP28 A-1(b) IC50 range” value turn out when `Cc1nc2sc(C(=O)N[C@@H]3COc4cc(N5CCNCC5)ccc4C3)c(N)c2s1` [Example 1-26, (S)-6-amino-2-methyl-N-(7-(piperazin-1-yl)chroman-3-yl)thieno[2,3-d]thiazole-5-carboxamide] was run?
**A.** + (>2 μM)

**Q.** How did the “USP28 A-1(b) IC50 range” value turn out when `Cc1ccc2c(N)c(C(=O)N[C@H]3COc4c(ccc(N5CCNCC5)c4F)C3)sc2n1` [Example 1-33, (R)-3-amino-N-(8-fluoro-7-(piperazin-1-yl)chroman-3-yl)-6-methylthieno[2,3-b]pyridine-2-carboxamide] was run?
**A.** +++ (0.05-0.2 μM)

**Q.** Which “USP28 A-1(b) IC50 range” value does the source give for `Cc1ccc2c(N)c(C(=O)N[C@@H]3COc4c(ccc(N5CCNCC5)c4F)C3)sc2n1` [Example 1-34, (S)-3-amino-N-(8-fluoro-7-(piperazin-1-yl)chroman-3-yl)-6-methylthieno[2,3-b]pyridine-2-carboxamide] here?
**A.** + (>2 μM)

**Q.** For `Cc1ccc2c(N)c(C(=O)N[C@H]3COc4cc(N5CCNCC5)c(F)cc4C3)sc2n1` [Example 1-35, (R)-3-amino-N-(6-fluoro-7-(piperazin-1-yl)chroman-3-yl)-6-methylthieno[2,3-b]pyridine-2-carboxamide], which “USP28 A-1(b) IC50 range” value is on record?
**A.** +++ (0.05-0.2 μM)

**Q.** For `Cc1ccc2c(N)c(C(=O)N[C@@H]3COc4cc(N5CCNCC5)c(F)cc4C3)sc2n1` [Example 1-36, (S)-3-amino-N-(6-fluoro-7-(piperazin-1-yl)chroman-3-yl)-6-methylthieno[2,3-b]pyridine-2-carboxamide], which “USP28 A-1(b) IC50 range” value is on record?
**A.** + (>2 μM)

**Q.** Which “USP28 A-1(b) IC50 range” value does the source give for `Cc1ccc2c(N)c(C(=O)N[C@H]3COc4cc(N5CC6CNCC(C5)C6(F)F)ccc4C3)sc2n1` [Example 2-1, 3-Amino-N-((3R)-7-(9,9-difluoro-3,7-diazabicyclo[3.3.1]nonan-3-yl)chroman-3-yl)-6-methylthieno[2,3-b]pyridine-2-carboxamide] here?
**A.** ++++ (0.001-0.05 μM)

**Q.** `Cc1ccc2c(N)c(C(=O)N[C@H]3COc4cc(N5CC6CC(C5)N6)ccc4C3)sc2n1` [Example 2-2, N-((3R)-7-(3,6-diazabicyclo[3.1.1]heptan-3-yl)chroman-3-yl)-3-amino-6-methylthieno[2,3-b]pyridine-2-carboxamide] was tested. Which “USP28 A-1(b) IC50 range” value did it give?
**A.** +++ (0.05-0.2 μM)

**Q.** For `Cc1ccc2c(N)c(C(=O)N[C@@H]3COc4cc(N5CC6CC(C5)N6)ccc4C3)sc2n1` [Example 2-3, N-((3S)-7-(3,6-diazabicyclo[3.1.1]heptan-3-yl)chroman-3-yl)-3-amino-6-methylthieno[2,3-b]pyridine-2-carboxamide], which “USP28 A-1(b) IC50 range” value is on record?
**A.** + (>2 μM)

**Q.** With `Cc1ccc2c(N)c(C(=O)N[C@H]3COc4cc(N5CCNC[C@@H]5C)ccc4C3)sc2n1` [Example 2-4, 3-amino-6-methyl-N-((R)-7-((S)-2-methylpiperazin-1-yl)chroman-3-yl)thieno[2,3-b]pyridine-2-carboxamide] as the compound, how does the “USP28 A-1(b) IC50 range” value read?
**A.** ++++ (0.001-0.05 μM)

**Q.** How did the “USP28 A-1(b) IC50 range” value turn out when `Cc1ccc2c(N)c(C(=O)N[C@H]3COc4cc(N5CCNC[C@H]5C)ccc4C3)sc2n1` [Example 2-5, 3-amino-6-methyl-N-((R)-7-((R)-2-methylpiperazin-1-yl)chroman-3-yl)thieno[2,3-b]pyridine-2-carboxamide] was run?
**A.** ++++ (0.001-0.05 μM)

**Q.** For `Cc1ccc2c(N)c(C(=O)N[C@H]3COc4cc(N5C6CCC5CNC6)ccc4C3)sc2n1` [Example 2-6, N-((3R)-7-(3,8-diazabicyclo[3.2.1]octan-8-yl)chroman-3-yl)-3-amino-6-methylthieno[2,3-b]pyridine-2-carboxamide], which “USP28 A-1(b) IC50 range” value is on record?
**A.** +++ (0.05-0.2 μM)

**Q.** How did the “USP28 A-1(b) IC50 range” value turn out when `Cc1ccc2c(N)c(C(=O)N[C@H]3COc4cc(N5CCCC56CNC6)ccc4C3)sc2n1` [Example 2-7, (R)-N-(7-(2,5-diazaspiro[3.4]octan-5-yl)chroman-3-yl)-3-amino-6-methylthieno[2,3-b]pyridine-2-carboxamide] was run?
**A.** +++ (0.05-0.2 μM)

**Q.** With `Cc1ccc2c(N)c(C(=O)N[C@H]3COc4cc(N5CCN[C@@H](C)C5)ccc4C3)sc2n1` [Example 2-8, 3-amino-6-methyl-N-((R)-7-((S)-3-methylpiperazin-1-yl)chroman-3-yl)thieno[2,3-b]pyridine-2-carboxamide] as the compound, how does the “USP28 A-1(b) IC50 range” value read?
**A.** ++ (0.2-2 μM)

**Q.** With `Cc1ccc2c(N)c(C(=O)N[C@H]3COc4cc(N5CCN[C@H](C)C5)ccc4C3)sc2n1` [Example 2-9, 3-amino-6-methyl-N-((R)-7-((R)-3-methylpiperazin-1-yl)chroman-3-yl)thieno[2,3-b]pyridine-2-carboxamide] as the compound, how does the “USP28 A-1(b) IC50 range” value read?
**A.** ++ (0.2-2 μM)

**Q.** With `Cc1ccc2c(N)c(C(=O)N[C@H]3COc4cc(N5CCNCC56COC6)ccc4C3)sc2n1` [Example 2-10] as the compound, how does the “USP28 A-1(b) IC50 range” value read?
**A.** +++ (0.05-0.2 μM)

**Q.** Which “USP28 A-1(b) IC50 range” value does the source give for `Cc1cnc2c(N)c(C(=O)N[C@H]3COc4cc(N5CC6CC(C5)N6)ccc4C3)sc2n1` [Example 2-11, N-((3R)-7-(3,6-diazabicyclo[3.1.1]heptan-3-yl)chroman-3-yl)-7-amino-3-methylthieno[2,3-b]pyrazine-6-carboxamide] here?
**A.** ++ (0.2-2 μM)

**Q.** Which “USP28 A-1(b) IC50 range” value does the source give for `Cc1cnc2c(N)c(C(=O)N[C@H]3COc4cc(N5CC6COCC(C5)N6)ccc4C3)sc2n1` [Example 2-12, N-((3R)-7-(3-oxa-7,9-diazabicyclo[3.3.1]nonan-7-yl)chroman-3-yl)-7-amino-3-methylthieno[2,3-b]pyrazine-6-carboxamide] here?
**A.** ++ (0.2-2 μM)

**Q.** How did the “USP28 A-1(b) IC50 range” value turn out when `Cc1cnc2c(N)c(C(=O)N[C@H]3COc4cc(N5CC6CNCC(C5)O6)ccc4C3)sc2n1` [Example 2-13, N-((3R)-7-(9-oxa-3,7-diazabicyclo[3.3.1]nonan-3-yl)chroman-3-yl)-7-amino-3-methylthieno[2,3-b]pyrazine-6-carboxamide] was run?
**A.** ++ (0.2-2 μM)

**Q.** For `COc1nc2sc(C(=O)N[C@H]3COc4cc(N5CCNCC5)ccc4C3)c(N)c2cc1F` [Example 2-16, (R)-3-amino-5-fluoro-6-methoxy-N-(7-(piperazin-1-yl)chroman-3-yl)thieno[2,3-b]pyridine-2-carboxamide], which “USP28 A-1(b) IC50 range” value is on record?
**A.** ++ (0.2-2 μM)

**Q.** How did the “USP28 A-1(b) IC50 range” value turn out when `Cc1cc(C)c2c(N)c(C(=O)N[C@H]3COc4cc(N5CCNCC5)ccc4C3)sc2n1` [Example 2-17, (R)-3-amino-4,6-dimethyl-N-(7-(piperazin-1-yl)chroman-3-yl)thieno[2,3-b]pyridine-2-carboxamide] was run?
**A.** +++ (0.05-0.2 μM)
